Measured values published in patent publication US20200061173A1, “IMMUNOGENIC COMPOSITION COMPRISING SURVIVIN PEPTIDES” (Vaxeal Research SAS, priority 2016, published 2020).

Test system: PBMC T cells
Experiment: Spontaneous T-cell responses against SVX-1 peptides in blood, IFN-γ ELISpot
Assay type: cell-based, human
Details: among the 6 positive patients
Procedure: Peripheral blood from 7 lung cancer patients was used to monitor the presence of SVX-1 peptides specific T cells. The cancer patients were recruited at the Hôpital Europeen Georges Pompidou (Paris, France). This study was conducted in accordance with French laws and after approval by the local ethics committee. Blood cells were also collected from 3 anonymous healthy donors at the Etablissement Français du Sang (EFS, Rungis, France) as buffy-coat preparations after informed consent and following EFS guidelines. The blood from the healthy donors served as negative controls.
PBMC were isolated by density centrifugation on Ficoll-Hyperpaque gradients (Sigma-Aldrich). PBMC were cultured for 6 days at 2×10^6 cells/ml in 2 ml per well with complete RPMI medium supplemented with 10% FCS. In each well, a pool of SVX-1 peptides was added at a concentration of 10 μg/ml. On day 2 after the beginning of the culture, IL-2 (Chiron) was added at 20 IU/ml in standard conditions. After 6 days of culture, ELISpot assays were performed using PHA-activated cells pulsed with the pool of SVX-1 peptides or the individual peptides (S1, S2 or S3) as antigen presenting cells (APCs). […]
Spots were counted using an automated stereomicro-scope (Zeiss). The number of specific T cells expressed as spot-forming cells/10^5 cells was calculated after subtracting negative control values (background). […]

HRISTFKNWPFLEGCACT (alpha-isoform survivin S1 positions 17-34) [18 amino acid peptide consisting of wild type Survivin amino acids 17-34]
Spontaneous T cell responses against individual peptides in lung cancer patients: detected
